The target of this test is C-C chemokine receptor type 6 (Homo sapiens) (UniProt P51684). Put plainly: CXCR5 receptor antagonists, SAR follow-up, selectivity assay for CCR6 antagonist project, cell-based, beta-arrestin, luminescence, CHO-K1 PathHunter (AID 540340). As to conditions: CCR6 beta-arrestin antagonism, AID540334.
Chain of C-C chemokine receptor type 6 (Homo sapiens) (P51684 whole entry, looked up): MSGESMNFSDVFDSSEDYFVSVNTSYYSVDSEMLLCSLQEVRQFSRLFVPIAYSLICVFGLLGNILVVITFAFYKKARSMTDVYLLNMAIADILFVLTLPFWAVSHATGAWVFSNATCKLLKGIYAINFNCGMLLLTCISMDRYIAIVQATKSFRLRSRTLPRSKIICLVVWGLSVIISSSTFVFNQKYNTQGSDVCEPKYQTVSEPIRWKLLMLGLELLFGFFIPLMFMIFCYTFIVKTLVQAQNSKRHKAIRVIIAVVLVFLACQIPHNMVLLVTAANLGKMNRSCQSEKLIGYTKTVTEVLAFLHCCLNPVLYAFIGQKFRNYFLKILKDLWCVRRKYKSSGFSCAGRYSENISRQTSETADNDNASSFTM
As usually defined, the IC50 is the concentration at which inhibition is half-maximal. Regarding `C/C=C(\C)C(=O)OC1[C@H](OC(C)=O)C2(CO)C(CC1(C)C)C1=CCC3C4(C)CCC(O[C@@H]5O[C@H](C(=O)O)[C@@H](O[C@@H]6O[C@H](CO)[C@@H](O)[C@H](O)[C@H]6O)[C@H](O)[C@H]5O[C@H]5O[C@H](CO)[C@@H](O)[C@H](O)[C@H]5O)[C@](C)(CO)C4CCC3(C)[C@]1(C)C[C@H]2O` (stereo partly specified), the IC50 is 7.82 µM.

Regarding `O=C1C2C3C=CC(CO)(O3)C2C(=O)N1c1ccccc1-c1ccccc1` (stereo unspecified), the IC50 is above 66.6 µM.

In turn, `Cn1c(O)c(C2=NNC(c3ccc(Cl)cc3)C2)c(=O)n(C)c1=O` (stereo unspecified) displayed a half-inhibitory concentration (IC50) of 5.84 µM.

Take `CN1CCc2nc(SCc3ccc(Cl)cc3)c(C#N)c(-c3cccs3)c2C1`: the 50% inhibitory concentration (IC50) is above 66.6 µM.

`CCCCCCCCCCCCC/C=C/[C@@H](O)[C@@H](N)CO` yielded a half-maximal inhibitory concentration (IC50) of 20.9 µM.

Turning to `Cc1cccc2c1N(CCCOc1ccc(C(C)(C)C)cc1)C(=O)C2=O`, the IC50 is above 66.6 µM.
